Test results: article PMC6349869, “The palladacycle complex AJ-5 induces apoptotic cell death while reducing autophagic flux in rhabdomyosarcoma cells” (Cell Death Discovery, 2019)

Assays:
Format in all cases: cell-based, human
[1] = system: RH30 and RD cells; experiment: Cell cycle analysis (FACS, PI) and cyclin western blots
Protocol: Cells were lysed at 4 °C in whole-cell lysis buffer (0.125 M Tris-HCl pH 6.8, 4% SDS, 0.2% glycerol, 0.1% β-mercaptoethanol and a pinch of bromophenol blue) and boiled for 10 min. Proteins were resolved by SDS-PAGE (6–15% gels) and transferred to Hybond ECL membranes (Amersham, UK). The membranes were incubated with primary antibodies: rabbit polyclonal antibodies to phospho-histone H2A.X (Ser139) (#2577), phospho-chk2 (Thr68) (#221), phospho-p38 MAPK (Thr180/Tyr182) (#9211), cleaved caspase-3 (Asp175) (#9661), PARP (#9542), caspase-9 (#9502), LC3B (#2775), p38 MAPK (#9212), rabbit monoclonal antibody to cleaved caspase-7 (Asp198) (D6H1) (#8438), mouse monoclonal antibodies to phospho-ATM (Ser1981) (D6H9) (#5883), Cyclin B1 (V152) (#4135), Caspase-8 (1C12) (#9746), SQSTM1/p62 (D5L7G) (#88588) from Cell Signaling Technology (Massachusetts, USA); mouse monoclonal antibody to p53 (DO-1) (sc-126), rabbit polyclonal antibodies to p21 (C-19) (sc-397), cyclin A (H-432) (sc-751), cyclin B1 (H-433)(sc-752), PARP-1 (H-250) (sc-7150) from Santa Cruz Biotechnology (Texas, USA); rabbit polyclonal antibody to p38 MAP kinase (M0800) from Sigma Aldrich. […] Densitometry readings were obtained using ImageJ v1.50i[58] and protein expression levels were represented as a ratio of protein of interest/p38 loading control normalized to the vehicletreated control sample where appropriate. […]

[2] = system: AX-OH-1 cells; experiment: MTT cell viability assay, AX-OH-1; conditions: AX-OH-1 (aRMS), 48 h
Protocol: RH30 human aRMS cells (kindly provided by Associate Professor Judith Davie, Southern Illinois University), AX-OH-1 human aRMS and FL-OH-1 human eRMS cells (kindly provided by Professor Stefan Bath, University of Cape Town) were cultured in Roswell Park Memorial Institute Medium (RPMI)-1640 (Sigma Aldrich, Missouri, USA). […] Cell morphology was monitored using an Olympus CKX41 inverted microscope (MSAC Ltd, UK) and imaged with an EVOS™ XL AMEX1000 Core Imaging System (Thermo Fisher Scientific, Massachusetts, USA).
Cells were seeded in 96-well plates and treated the next day with a range of AJ-5 concentrations (0.1–1.0 μM) or vehicle ([…]) for 48 h. Cell viability was measured using the 3-(4,5-dimethylthiazol-2-yl)-2,5-diphenyl-trazolium bromide (MTT) assay (11465007001; Sigma Aldrich) according to the manufacturer’s instructions. Mean cell viability was calculated as a percentage of the mean vehicle control. At least three independent experiments in quadruplicate were performed from which the half maximal inhibitory concentration (IC50) was determined using GraphPad Prism version 6.0 (GraphPad Software, California, USA). The selectivity index (SI) was determined by dividing the IC50 of a normal cell line by the IC50 of a cancer cell line.

[3] = system: RMS cells (RH30, AX-OH-1, RD, FL-OH-1); experiment: Clonogenic assay, RMS cells
Protocol: Cells were seeded in 6-well plates and treated the following day with IC50, ½ IC50, ¼ IC50 AJ-5 and vehicle. After 24 h, 800–4000 cells were seeded in 35 mm dishes in drug-free medium. Formation of colonies were monitored and after 7–21 days cells were fixed with 3:1 methanol:acetic acid and stained with 0.5% crystal violet (Sigma Aldrich) in 100% methanol. Colonies were imaged and percentage colony area was determined using ImageJ v1.50i[58] and the plugin ColonyArea[59]. Colony area was determined for each drug concentration and expressed as a percentage of vehicletreated control.

[4] = system: RH30 cells; experiment: Autophagic flux by western blotting (p62; LC3II with bafilomycin A1), RH30
Protocol: AJ-5, synthesized as previously described, was dissolved in dimethyl sulfoxide (DMSO) (D8418; Sigma Aldrich) to give a 5 mM AJ-5 stock which was stored at room temperature (RT) and used within 5 days. AJ-5 was diluted in cell culture medium to achieve the desired final concentration and a vehicle control (DMSO) of the same concentration was prepared simultaneously. Cells were treated at a confluency of 60%. For western blot experiments to determine autophagy flux, cells were treated with 200 nM bafilomycin A1 (B1793; Sigma Aldrich) for 2 h post AJ-5 treatment. Doxorubicin (z/26/0167; Teva Pharmaceutical Industries Ltd, Israel) was used as a positive control in Caspase-Glo experiments at a concentration of 0.5 µM.
Cells were lysed at 4 °C in whole-cell lysis buffer (0.125 M Tris-HCl pH 6.8, 4% SDS, 0.2% glycerol, 0.1% β-mercaptoethanol and a pinch of bromophenol blue) and boiled for 10 min. Proteins were resolved by SDS-PAGE (6–15% gels) and transferred to Hybond ECL membranes (Amersham, UK). […] Densitometry readings were obtained using ImageJ v1.50i[58] and protein expression levels were represented as a ratio of protein of interest/p38 loading control normalized to the vehicletreated control sample where appropriate. […]

## CC(C)c1cccc(C(C)C)c1[N+]1=Cc2cccc[c]2[Pd-2]1([Cl])[P+](CC[P+](c1ccccc1)(c1ccccc1)[Pd-2]1([Cl])[c]2ccccc2C=[N+]1c1c(C(C)C)cccc1C(C)C)(c1ccccc1)c1ccccc1 (stereo not shown) [AJ-5]
[1]; IC50, 24 and 48 h, FACS
  Cell cycle progression: induces a G1 cell cycle arrest
[1]; western blotting
  Levels of cyclin A and cyclin B: decrease
[2]
  IC50: ≤ 200 nM
[3]; 24 h treatment at IC50, colonies after 7–21 days
  Colony formation at IC50 concentrations: only a few or no RMS cell colonies formed
[3]; 24 h treatment with ¼ IC50, ½ IC50 or IC50, colonies after 7–21 days
  Ability of RMS cells to survive and proliferate (colony area): significantly inhibits the ability of RMS cells to survive and proliferate
[4]; RH30, 0.1 µM or IC50, 24 and 48 h
  Autophagic flux judged by p62 levels: appears to reduce autophagic flux
[4]; RH30, IC50 24 h then 200 nM bafilomycin A1 2 h
  LC3II in the presence of bafilomycin A1: decreased levels of LC3II
